Activity calls are given as the source filed them.
What was measured:
Cytochrome P450 3A4 = Cytochrome P450 3A4 (Homo sapiens, UniProt P08684); conditions: Potency;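 note: confirmatory qHTS run detecting inhibitors and substrates of CYP3A4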
BJ [1] = assay: cytotoxicity toward BJ-TERT-LT-ST fibroblasts, dose response, cell-based, RAS-independent, luminescence (AID 1935); format: functional; conditions: Homo sapiens;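 note: BJ fibroblasts immortalized with TERT plus LT and ST oncogenes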
BJ [2] = assay: cytotoxicity toward BJ-TERT fibroblasts, dose response, cell-based, RAS-independent, luminescence (AID 1933); format: functional; conditions: Homo sapiens
BJ [3] = assay: cells; format: functional, cell-based; conditions: Homo sapiens
[4] = cytotoxicity toward DRD oncogenic fibroblasts, dose response, cell-based, non-viral oncogenic, luminescence (AID 1934); format: functional; conditions: Homo sapiens
[5] = Luminescence Cell-Based Dose Retest to Confirm Inhibitors of Cancer Stem Cells. [Related pubchem assays (depositor defined):AID2717, AID2721]; format: functional; conditions: Homo sapiens
[6] = microbe, parasite or virus in culture; format: functional; conditions: Mycobacterium tuberculosis
[7] = inhibitors of clade B AD8 Env fusion, dose response, cell-based, cherry-pick (AID 652062); format: functional;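 note: luciferase signal from cell-cell fusion driven by HIV-1 clade B AD8 Env; potency is for inhibitors of fusion seen as a drop in luminescence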
[8] = Shn3 3'UTR reporter inhibitors, dose response, cell-based, Clone20 osteoblasts, firefly luciferase, cherry-picked (AID 624132); format: functional;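 note: firefly luciferase luminescence from reporter carrying the Shn3 3'UTR in osteoblasts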
[9] = control 3'UTR Renilla luciferase suppression, dose response, counter-screen for Shn3 inhibitor project, cell-based, Clone20-Shn3RL, cherry-picked (AID 624133); format: functional
[10] = HepG2 cell cytotoxicity, dose response, cytotoxicity control for Shn3 inhibitor project, CellTiter-Glo, cherry-picked (AID 624134); format: functional, cell-based
[11] = biological target: Luciferin 4-monooxygenase (Photinus pyralis, UniProt P08659); assay: firefly luciferase enzyme inhibitors, dose response, biochemical, luminescence (AID 1891)
[12] = Luminescence Cell-Based Dose Confirmation HTS to Identify Inhibitors of Platelet Dense Granule Release. [Related pubchem assays: 1663 (Primary HTS), 1678 (Summary of Project)]; format: functional
[13] = biological target: T1, Replicative DNA helicase DnaB (Mycobacterium tuberculosis, UniProt P9WMR3); assay: DnaB intein splicing inhibitors, dose response, biochemical, cell-free fluorescence (AID 449749); format: functional
T1 sequence (P9WMR3 whole entry): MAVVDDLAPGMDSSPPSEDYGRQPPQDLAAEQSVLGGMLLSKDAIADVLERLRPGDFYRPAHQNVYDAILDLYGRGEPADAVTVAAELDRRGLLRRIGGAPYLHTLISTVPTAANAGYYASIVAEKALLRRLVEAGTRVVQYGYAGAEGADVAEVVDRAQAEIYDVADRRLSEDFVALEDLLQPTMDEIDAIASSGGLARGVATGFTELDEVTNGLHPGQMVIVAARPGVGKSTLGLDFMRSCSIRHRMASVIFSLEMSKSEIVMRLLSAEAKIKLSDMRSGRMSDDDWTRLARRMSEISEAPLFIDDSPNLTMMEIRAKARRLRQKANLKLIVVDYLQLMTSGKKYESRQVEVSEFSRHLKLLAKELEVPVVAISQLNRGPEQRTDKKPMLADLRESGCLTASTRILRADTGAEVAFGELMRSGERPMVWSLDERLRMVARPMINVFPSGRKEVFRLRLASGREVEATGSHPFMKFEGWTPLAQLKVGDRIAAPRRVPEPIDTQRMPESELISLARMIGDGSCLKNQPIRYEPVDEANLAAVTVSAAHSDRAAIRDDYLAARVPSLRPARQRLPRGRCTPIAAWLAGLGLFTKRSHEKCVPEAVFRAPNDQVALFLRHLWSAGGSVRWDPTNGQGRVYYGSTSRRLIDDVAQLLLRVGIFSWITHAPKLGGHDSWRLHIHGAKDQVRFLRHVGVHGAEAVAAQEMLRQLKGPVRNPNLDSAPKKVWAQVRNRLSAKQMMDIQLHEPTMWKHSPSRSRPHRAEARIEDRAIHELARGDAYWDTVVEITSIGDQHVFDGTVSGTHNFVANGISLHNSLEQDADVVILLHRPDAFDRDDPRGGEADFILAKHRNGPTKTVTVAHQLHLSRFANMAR

Protein RecA = biological target: T2, Protein RecA (Mycobacterium tuberculosis, UniProt P9WHJ3); assay: Fluorescence Cell-Free Homogeneous Dose Retest to Identify Inhibitors of RecA-Intein Splicing Activity. [Related pubchem assays (depositor defined):AID2097, AID2223, AID489010, AID492950]; format: functional
T2 sequence (P9WHJ3 whole entry): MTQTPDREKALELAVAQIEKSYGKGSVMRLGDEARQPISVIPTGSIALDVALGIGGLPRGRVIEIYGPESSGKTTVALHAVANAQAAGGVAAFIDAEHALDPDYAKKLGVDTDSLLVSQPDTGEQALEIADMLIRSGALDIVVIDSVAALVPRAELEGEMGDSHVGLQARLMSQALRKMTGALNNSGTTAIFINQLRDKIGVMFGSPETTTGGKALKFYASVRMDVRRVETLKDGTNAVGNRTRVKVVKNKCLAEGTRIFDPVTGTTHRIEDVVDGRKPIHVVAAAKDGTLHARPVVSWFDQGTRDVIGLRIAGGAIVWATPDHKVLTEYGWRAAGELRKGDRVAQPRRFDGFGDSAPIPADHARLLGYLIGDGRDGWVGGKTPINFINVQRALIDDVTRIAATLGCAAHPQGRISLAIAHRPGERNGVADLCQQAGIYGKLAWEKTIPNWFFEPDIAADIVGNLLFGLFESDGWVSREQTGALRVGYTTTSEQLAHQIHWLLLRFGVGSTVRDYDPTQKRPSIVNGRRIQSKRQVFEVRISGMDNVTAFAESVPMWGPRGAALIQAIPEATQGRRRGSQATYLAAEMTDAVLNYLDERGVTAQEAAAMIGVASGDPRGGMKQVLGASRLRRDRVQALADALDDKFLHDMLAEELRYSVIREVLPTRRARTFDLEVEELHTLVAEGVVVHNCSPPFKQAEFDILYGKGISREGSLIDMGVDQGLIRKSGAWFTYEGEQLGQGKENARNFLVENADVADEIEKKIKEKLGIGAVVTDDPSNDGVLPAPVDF

[14] = Luminescence Cell-Based Dose Response HTS to Identify Activators of Luciferase Translation or Activity in H4 […] Cells. [Related pubchem assays: 1829 (Project Summary), 1814 (Primary HTS)]; format: functional
[15] = Luminescence Cell-Based Dose Confirmation HTS to Identify Activators of 5'UTR Stem-Loop Driven Alpha-Synuclein mRNA Translation in H4 Neuroglioblastoma Cells. [Related pubchem assays: 1829 (Project Summary), 1814 (Primary HTS)]; format: functional
H4 = assay: Luminescence Cell-Based Dose Response HTS to Identify Activators of 5'UTR Stem-Loop Driven Prion Protein mRNA Translation in H4 Neuroglioblastoma Cells. [Related pubchem assays: 1829 (Project Summary), 1814 (Primary HTS)]; format: functional; conditions: Homo sapiens
[16] = inhibitors of HIV Env-driven cell fusion, dose response, cherry-pick (AID 652057); format: functional, cell-based
Streptokinase A = biological target: T3, Streptokinase A (Streptococcus pyogenes serotype M1, UniProt P10520); assay: S. pyogenes streptokinase expression inhibitors, potency, dose response, plasminogen activation absorbance, OD405 (AID 1914); format: functional, Streptococcus pyogenes M1 GAS;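 note: secreted streptokinase activity via plasminogen activation per viability signal from cell pellet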
T3 sequence (P10520 whole entry): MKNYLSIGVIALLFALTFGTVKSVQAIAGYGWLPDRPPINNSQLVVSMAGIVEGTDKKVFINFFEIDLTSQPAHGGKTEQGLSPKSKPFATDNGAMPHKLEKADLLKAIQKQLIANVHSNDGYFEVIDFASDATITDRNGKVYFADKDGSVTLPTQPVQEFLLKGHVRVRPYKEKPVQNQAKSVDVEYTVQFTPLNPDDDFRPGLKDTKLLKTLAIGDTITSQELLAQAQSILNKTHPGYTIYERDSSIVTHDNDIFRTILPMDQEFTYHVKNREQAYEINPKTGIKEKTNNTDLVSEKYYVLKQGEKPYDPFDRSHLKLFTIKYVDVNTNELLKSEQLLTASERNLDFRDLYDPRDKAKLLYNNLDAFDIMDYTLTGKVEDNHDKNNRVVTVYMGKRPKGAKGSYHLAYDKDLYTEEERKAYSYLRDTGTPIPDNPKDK

[17] = NIH-3T3 fibroblast cytotoxicity, dose response, cytotoxicity control, cell-based, fluorescence, Alamar Blue, secondary assay (AID 2327); format: functional;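 note: NIH-3T3 mouse fibroblasts cultured with fluconazole at 8 µg/mL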
[18] = cytotoxicity toward NIH3T3 fibroblasts, dose response, counter-screen, cell-based, ATP luminescence, mouse fibroblasts (AID 2010); format: functional;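 note: cells exposed to compound for about 90 hours before reading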
[19] = tested on: Streptococcus sp. 'group A'; assay: growth inhibition of control SK(-) GAS strain, dose response, counter-screen for streptokinase expression inhibitor project, luminescence, kanamycin, BacTiterGlo, confirmation (AID 1900); format: functional, organism-based
Streptococcus = assay: Group A Streptococcus viability loss, dose response, counter-screen for streptokinase expression inhibitor project, luminescence, BacTiterGlo (AID 1915); format: functional, organism-based;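 note: potency for reduction of bacterial viability or growth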
[20] = C. albicans growth with fluconazole, confirmation, fluorescence, retest (AID 2467); format: functional, cell-based
[21] = inhibitors of intracellular T. cruzi replication, confirmation, NIH3T3 host cells, beta-gal luminescence (AID 2044); format: functional, cell-based;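 note: intracellular parasites grown in NIH/3T3 mouse fibroblasts as host cells; luminescent beta-galactosidase reporter signal from transgenic T. cruzi replicating inside host cells; inhibitors lower the luminescence signal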
Genome polyprotein = Genome polyprotein (dengue virus type 2, UniProt P29990); assay: Dengue-2 NS5 methyltransferase inhibitors, primary screen, biochemical, confirmation dose response (AID 588689); format: functional
[22] = biological target: T4, Polyadenylate-binding protein 1 (Homo sapiens, UniProt P11940); assay: PABP1 MLLE–PAM2 binding inhibitor potency, dose response, biochemical, fluorescence polarization, FITC-PAM2 peptide (AID 602259); format: functional; conditions: read-out: IC50_Mean
[23] = biological target: T4, Polyadenylate-binding protein 1; assay: PABP1 MLLE–PAM2 interaction inhibitors, dose response, miRNA deadenylation inhibitor project, biochemical, fluorescence polarization, Cy5-PAM2 peptide, secondary (AID 602260); format: functional; conditions: read-out: IC50_Mean

Compound: CC(=O)Nc1ccc(C2C(C)CCC3C(=O)N4C(CCC(C)[C@@H]4c4ccc(NC(C)=O)cc4)C(=O)N32)cc1 (stereo not given in full)
- AC50 (Cytochrome P450 3A4): 3.16 µM (inconclusive)

Compound: CCC1=Nc2cc(C(=O)NCc3cccnc3)ccc2Sc2ccc(C)cc21
- EC50 (BJ [1]): 16.6 µM (active)
- EC50 (BJ [2]): 4.48 µM (active)
- EC50 (BJ [3]): 101 µM (active)
- EC50 [4]: 3.06 µM (active)
- AC50 [5]: 0.493 µM (active)

Compound: OCC(O)/C=N/Nc1nc(Nc2ccccc2)nc(Nc2ccccc2)n1 (stereo not given)
- CC50 [6]: > 40 µM (active)

Compound: O=C(Nc1ccc(Cl)cc1)N1CCN(c2ccc3nnc(-c4ccc(F)cc4)n3n2)CC1
- CC50 [6]: 19.3 µM (active)

Compound: O=C(/C=C/c1ccccc1)c1ccc(O)cc1O [2',4'-DIHYDROXYCHALCONE]
- AC50 (Cytochrome P450 3A4): 1.58 µM (inconclusive)

Compound: CCC(NCc1ccc(F)cc1)=C1C(=O)N(C)C(=O)N(C)C1=O
- AC50 [7]: 12.2 µM (active)

Compound: COc1ccc(CNC(=O)c2cc3c(C)nc4ccccc4c3o2)c(OC)c1
- AC50 [8]: 3.22 µM (active)
- AC50 [9]: 2.47 µM (active)
- AC50 [10]: 3.5 µM (active)
- EC50 [11]: > 112 µM (not active)
- EC50 [12]: > 112 µM (not active)

Compound: COc1cc2[nH]c3c(N4CCN(c5ccccn5)CC4)ncnc3c2cc1OC
- CC50 [6]: 11.1 µM (active)

Compound: CCOC(=O)c1c(CC(C)C)csc1NC(=O)CCl
- AC50 [13]: 9.8 µM (active)
- CC50 [6]: > 40 µM (active)
- EC50 (Protein RecA): 2.39 µM (active)

Compound: O=c1cc(-c2ccccc2)oc2c(O)c(O)ccc12 [7,8-DIHYDROXYFLAVONE]
- AC50 (Cytochrome P450 3A4): 39.8 µM (inconclusive)

Compound: Cc1nn(-c2ccccc2)c(C)c1C(=O)OC(C)C(=O)NC1CCCCC1 (stereo not given)
- AC50 [8]: 8.19 µM (active)
- AC50 [9]: 25.8 µM (active)
- AC50 [10]: 41.8 µM (active)

Compound: Cc1ccc(/C=C2\SC(=S)N(CCC(=O)N3CCCCC3)C2=O)cc1
- EC50 (BJ [1]): > 150 µM (not active)
- EC50 (BJ [2]): > 150 µM (not active)
- EC50 (BJ [3]): > 150 µM (inconclusive)
- EC50 [4]: > 150 µM (not active)

Compound: Nc1nc(N)c2cc(S(=O)(=O)c3cccc(C(F)(F)F)c3)ccc2n1
- AC50 [8]: 5.22 µM (active)
- AC50 [9]: 16.9 µM (active)
- AC50 [10]: 5.52 µM (active)

Compound: O=C(/C=C/c1ccc(O)c([N+](=O)[O-])c1)c1ccc2ccccc2c1
- EC50 [14]: 14.5 µM (active)
- CC50 [6]: > 40 µM (active)
- EC50 [15]: 16.6 µM (active)
- EC50 (H4): 17.9 µM (active)

Compound: COc1ccc(NC(=O)Nc2ccc3c(c2)C(=O)N([C@H](C)CO)C[C@H](C)[C@H](CN(C)S(=O)(=O)c2ccc(C)cc2)O3)cc1
- AC50 [16]: 3.61 µM (active)
- AC50 [7]: 11.2 µM (active)

Compound: COc1cccc(Nc2ccc([N+](=O)[O-])c3nonc23)c1
- CC50 [6]: > 40 µM (active)

Compound: COc1ccc(C2(c3ccc(OC)cc3)NC(=O)N(CC(=O)Nc3ccc(OC(F)F)cc3)C2=O)cc1
- CC50 [6]: 36.2 µM (active)

Compound: COc1cc2ccnc(Cc3cccc(OC)c3OC)c2cc1OC
- AC50 [8]: 4.64 µM (active)
- AC50 [9]: 5.35 µM (active)
- AC50 [10]: 40.7 µM (active)

Compound: COc1ccc(-c2cc(C3CCN(Cc4cccc(C(F)(F)F)c4)CC3)[nH]n2)cc1
- EC50 (Streptokinase A): > 150 µM (not active)
- EC50 [17]: > 160 µM (inactive)
- EC50 [18]: > 60 µM (not active)
- EC50 [19]: 25.1 µM (active)
- EC50 (Streptococcus): > 150 µM (not active)
- EC50 [20]: > 38 µM (not active)
- CC50 [6]: 35.5 µM (active)
- EC50 [21]: 0.626 µM (active)

Compound: Oc1c(CN2CCOCC2)cc(CN2CCOCC2)c(O)c1O
- IC50 (Genome polyprotein): 15.2 µM (active)

Compound: COc1cccc(NC(=S)N/N=C2/CCCCc3ccccc32)c1
- EC50 [14]: 8.02 µM (active)
- IC50 [22]: > 66 µM (inactive)
- IC50 [23]: > 66 µM (inactive)
- EC50 [15]: 7.09 µM (active)
- EC50 (H4): 33.6 µM (active)

From ChEMBL document CHEMBL1201862, “PubChem BioAssay data set” (2004)
